Experimental data taken from PubChem BioAssay (NCI).
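Each compound was tested at five concentrations against cells in 96-well plates for 48 hours. The concentration for 50% growth inhibition is given as GI50. TGI: concentration producing complete growth inhibition.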

What was measured:
Assay in all cases: NCI anticancer screen, dose series, 48 h; in the data active means GI50 below about 0.43 µM; inactive means the rest
UO-31 renal = system: UO-31 renal
SK-OV-3 ovarian = system: SK-OV-3 ovarian
HCC-2998 colon = system: HCC-2998 colon
SK-MEL-28 melanoma = system: SK-MEL-28 melanoma
LOX IMVI melanoma = system: LOX IMVI melanoma
OVCAR-5 ovarian = system: OVCAR-5 ovarian
HCT-116 colon = system: HCT-116 colon
ACHN renal = system: ACHN renal
LXFL 529 NSCLC = system: LXFL 529 NSCLC
SK-MEL-5 melanoma = system: SK-MEL-5 melanoma
DLD-1 colon = system: DLD-1 colon
COLO 205 colon = system: COLO 205 colon
NCI-H460 lung = system: NCI-H460 lung
SNB-75 CNS = system: SNB-75 CNS
KM12 colon = system: KM12 colon
UACC-62 melanoma = system: UACC-62 melanoma
U251 CNS = system: U251 CNS
DMS 273 small cell lung = system: DMS 273 small cell lung
OVCAR-4 ovarian = system: OVCAR-4 ovarian
HOP-62 NSCLC = system: HOP-62 NSCLC
SF-539 CNS = system: SF-539 CNS
NCI-H522 lung = system: NCI-H522 lung
A549 NSCLC = system: A549 NSCLC
M19-MEL melanoma = system: M19-MEL melanoma
IGROV1 ovarian = system: IGROV1 ovarian
UACC-257 melanoma = system: UACC-257 melanoma
SN12C renal = system: SN12C renal
RPMI-8226 leukemia = system: RPMI-8226 leukemia
TK-10 renal = system: TK-10 renal
HOP-18 NSCLC = system: HOP-18 NSCLC
CCRF-CEM leukemia = system: CCRF-CEM leukemia
OVCAR-8 ovarian = system: OVCAR-8 ovarian
786-0 renal = system: 786-0 renal
MOLT-4 leukemia = system: MOLT-4 leukemia
NCI-H23 lung = system: NCI-H23 lung
HL-60(TB) leukemia = system: HL-60(TB) leukemia
SF-295 CNS = system: SF-295 CNS
SF-268 CNS = system: SF-268 CNS
NCI-H226 lung = system: NCI-H226 lung
SNB-78 CNS = system: SNB-78 CNS
RXF 393 renal = system: RXF 393 renal
KM20L2 colon = system: KM20L2 colon
HT29 colon = system: HT29 colon
MALME-3M melanoma = system: MALME-3M melanoma
DMS 114 small cell lung = system: DMS 114 small cell lung
OVCAR-3 ovarian = system: OVCAR-3 ovarian
HCT-15 colon = system: HCT-15 colon
K-562 leukemia = system: K-562 leukemia
SK-MEL-2 melanoma = system: SK-MEL-2 melanoma
M14 melanoma = system: M14 melanoma
XF 498 CNS = system: XF 498 CNS
CAKI-1 renal = system: CAKI-1 renal
A498 renal = system: A498 renal
SR leukemia = system: SR leukemia
SNB-19 CNS = system: SNB-19 CNS
HOP-92 NSCLC = system: HOP-92 NSCLC
SW-620 colon = system: SW-620 colon
EKVX NSCLC = system: EKVX NSCLC

O=C(CSc1nnc(Cc2ccccc2)o1)Nc1cccc([N+](=O)[O-])c1
> 100 µM: TGI (UO-31 renal) | TGI (SK-OV-3 ovarian) | TGI (HCC-2998 colon) | TGI (SK-MEL-28 melanoma) | TGI (LOX IMVI melanoma) | TGI (OVCAR-5 ovarian) | TGI (HCT-116 colon) | TGI (ACHN renal) | TGI (LXFL 529 NSCLC) | TGI (SK-MEL-5 melanoma) | TGI (DLD-1 colon) | TGI (COLO 205 colon) | TGI (NCI-H460 lung) | TGI (SNB-75 CNS) | TGI (KM12 colon) | TGI (UACC-62 melanoma) | TGI (U251 CNS) | TGI (DMS 273 small cell lung) | TGI (OVCAR-4 ovarian) | TGI (HOP-62 NSCLC) | TGI (SF-539 CNS) | TGI (NCI-H522 lung) | TGI (A549 NSCLC) | TGI (M19-MEL melanoma) | TGI (IGROV1 ovarian) | TGI (UACC-257 melanoma) | TGI (SN12C renal) | TGI (RPMI-8226 leukemia) | TGI (TK-10 renal) | TGI (HOP-18 NSCLC) | TGI (CCRF-CEM leukemia) | TGI (OVCAR-8 ovarian) | TGI (786-0 renal) | TGI (MOLT-4 leukemia) | TGI (NCI-H23 lung) | TGI (HL-60(TB) leukemia) | TGI (SF-295 CNS) | TGI (SF-268 CNS) | TGI (NCI-H226 lung) | TGI (SNB-78 CNS) | TGI (RXF 393 renal) | TGI (KM20L2 colon) | TGI (HT29 colon) | TGI (MALME-3M melanoma) | TGI (DMS 114 small cell lung) | TGI (OVCAR-3 ovarian) | TGI (HCT-15 colon) | TGI (K-562 leukemia) | TGI (SK-MEL-2 melanoma) | TGI (M14 melanoma)

CCC(C)(O)c1cn(-c2cccc(S(=O)(=O)O)c2)nn1 (centres undefined)
> 100 µM: TGI (UO-31 renal) | TGI (SK-OV-3 ovarian) | TGI (HCC-2998 colon) | TGI (SK-MEL-28 melanoma) | TGI (LOX IMVI melanoma) | TGI (XF 498 CNS) | TGI (OVCAR-5 ovarian) | TGI (HCT-116 colon) | TGI (ACHN renal) | TGI (LXFL 529 NSCLC) | TGI (SK-MEL-5 melanoma) | TGI (DLD-1 colon) | TGI (COLO 205 colon) | TGI (NCI-H460 lung) | TGI (SNB-75 CNS) | TGI (KM12 colon) | TGI (UACC-62 melanoma) | TGI (CAKI-1 renal) | TGI (U251 CNS) | TGI (DMS 273 small cell lung) | TGI (OVCAR-4 ovarian) | TGI (HOP-62 NSCLC) | TGI (SF-539 CNS) | TGI (NCI-H522 lung) | TGI (A549 NSCLC) | TGI (IGROV1 ovarian) | TGI (UACC-257 melanoma) | TGI (SN12C renal) | TGI (RPMI-8226 leukemia) | TGI (TK-10 renal) | TGI (HOP-18 NSCLC) | TGI (CCRF-CEM leukemia) | TGI (OVCAR-8 ovarian) | TGI (786-0 renal) | TGI (MOLT-4 leukemia) | TGI (NCI-H23 lung) | TGI (HL-60(TB) leukemia) | TGI (SF-295 CNS) | TGI (SF-268 CNS) | TGI (NCI-H226 lung) | TGI (SNB-78 CNS) | TGI (A498 renal) | TGI (RXF 393 renal) | TGI (KM20L2 colon) | TGI (HT29 colon) | TGI (MALME-3M melanoma) | TGI (DMS 114 small cell lung) | TGI (OVCAR-3 ovarian) | TGI (SR leukemia) | TGI (SNB-19 CNS) | TGI (HOP-92 NSCLC) | TGI (HCT-15 colon) | TGI (SW-620 colon) | TGI (K-562 leukemia) | TGI (SK-MEL-2 melanoma) | TGI (EKVX NSCLC) | TGI (M14 melanoma)

CC(=O)OC1CC2OC(Cc3ccccc32)O1 (centres undefined)
63.7 µM: TGI (MALME-3M melanoma)
> 100 µM: TGI (UO-31 renal) | TGI (SK-OV-3 ovarian) | TGI (HCC-2998 colon) | TGI (SK-MEL-28 melanoma) | TGI (LOX IMVI melanoma) | TGI (XF 498 CNS) | TGI (HCT-116 colon) | TGI (ACHN renal) | TGI (LXFL 529 NSCLC) | TGI (DLD-1 colon) | TGI (COLO 205 colon) | TGI (NCI-H460 lung) | TGI (SNB-75 CNS) | TGI (KM12 colon) | TGI (UACC-62 melanoma) | TGI (U251 CNS) | TGI (DMS 273 small cell lung) | TGI (HOP-62 NSCLC) | TGI (NCI-H522 lung) | TGI (A549 NSCLC) | TGI (M19-MEL melanoma) | TGI (IGROV1 ovarian) | TGI (UACC-257 melanoma) | TGI (SN12C renal) | TGI (RPMI-8226 leukemia) | TGI (TK-10 renal) | TGI (CCRF-CEM leukemia) | TGI (OVCAR-8 ovarian) | TGI (786-0 renal) | TGI (MOLT-4 leukemia) | TGI (NCI-H23 lung) | TGI (HL-60(TB) leukemia) | TGI (SF-295 CNS) | TGI (SF-268 CNS) | TGI (NCI-H226 lung) | TGI (SNB-78 CNS) | TGI (RXF 393 renal) | TGI (KM20L2 colon) | TGI (HT29 colon) | TGI (DMS 114 small cell lung) | TGI (OVCAR-3 ovarian) | TGI (SR leukemia) | TGI (SNB-19 CNS) | TGI (HOP-92 NSCLC) | TGI (SW-620 colon) | TGI (K-562 leukemia) | TGI (SK-MEL-2 melanoma) | TGI (EKVX NSCLC) | TGI (M14 melanoma)
94.9 µM: TGI (HOP-18 NSCLC)
81.6 µM: TGI (SF-539 CNS)

CNC=O.[O]=[Ge].[O]=[Ge].[O]=[Ge].[O]=[Ge][OH].[O]=[Ge][OH]
> 100 µM: TGI (UO-31 renal) | TGI (HCC-2998 colon) | TGI (SK-MEL-28 melanoma) | TGI (LOX IMVI melanoma) | TGI (XF 498 CNS) | TGI (OVCAR-5 ovarian) | TGI (HCT-116 colon) | TGI (ACHN renal) | TGI (LXFL 529 NSCLC) | TGI (SK-MEL-5 melanoma) | TGI (DLD-1 colon) | TGI (NCI-H460 lung) | TGI (SNB-75 CNS) | TGI (KM12 colon) | TGI (UACC-62 melanoma) | TGI (CAKI-1 renal) | TGI (DMS 273 small cell lung) | TGI (OVCAR-4 ovarian) | TGI (HOP-62 NSCLC) | TGI (SF-539 CNS) | TGI (A549 NSCLC) | TGI (M19-MEL melanoma) | TGI (IGROV1 ovarian) | TGI (UACC-257 melanoma) | TGI (SN12C renal) | TGI (RPMI-8226 leukemia) | TGI (TK-10 renal) | TGI (HOP-18 NSCLC) | TGI (CCRF-CEM leukemia) | TGI (OVCAR-8 ovarian) | TGI (786-0 renal) | TGI (MOLT-4 leukemia) | TGI (NCI-H23 lung) | TGI (HL-60(TB) leukemia) | TGI (SF-295 CNS) | TGI (SF-268 CNS) | TGI (NCI-H226 lung) | TGI (SNB-78 CNS) | TGI (A498 renal) | TGI (RXF 393 renal) | TGI (KM20L2 colon) | TGI (HT29 colon) | TGI (MALME-3M melanoma) | TGI (DMS 114 small cell lung) | TGI (OVCAR-3 ovarian) | TGI (SR leukemia) | TGI (SNB-19 CNS) | TGI (HOP-92 NSCLC) | TGI (HCT-15 colon) | TGI (SW-620 colon) | TGI (K-562 leukemia) | TGI (SK-MEL-2 melanoma) | TGI (EKVX NSCLC) | TGI (M14 melanoma)
inactive: GI50 (LXFL 529 NSCLC) > 100 µM
